The target of test [1] is T1, Cytosol 5-Lipoxygenase of Rat Basophile Leukemia Cells (Rattus norvegicus, UniProt P12527).
T1 construct: endogenous in cells; host or cells: RBL-2H3 cells (sonicate, 20,000 x g supernatant)
T1 sequence (P12527 1-673): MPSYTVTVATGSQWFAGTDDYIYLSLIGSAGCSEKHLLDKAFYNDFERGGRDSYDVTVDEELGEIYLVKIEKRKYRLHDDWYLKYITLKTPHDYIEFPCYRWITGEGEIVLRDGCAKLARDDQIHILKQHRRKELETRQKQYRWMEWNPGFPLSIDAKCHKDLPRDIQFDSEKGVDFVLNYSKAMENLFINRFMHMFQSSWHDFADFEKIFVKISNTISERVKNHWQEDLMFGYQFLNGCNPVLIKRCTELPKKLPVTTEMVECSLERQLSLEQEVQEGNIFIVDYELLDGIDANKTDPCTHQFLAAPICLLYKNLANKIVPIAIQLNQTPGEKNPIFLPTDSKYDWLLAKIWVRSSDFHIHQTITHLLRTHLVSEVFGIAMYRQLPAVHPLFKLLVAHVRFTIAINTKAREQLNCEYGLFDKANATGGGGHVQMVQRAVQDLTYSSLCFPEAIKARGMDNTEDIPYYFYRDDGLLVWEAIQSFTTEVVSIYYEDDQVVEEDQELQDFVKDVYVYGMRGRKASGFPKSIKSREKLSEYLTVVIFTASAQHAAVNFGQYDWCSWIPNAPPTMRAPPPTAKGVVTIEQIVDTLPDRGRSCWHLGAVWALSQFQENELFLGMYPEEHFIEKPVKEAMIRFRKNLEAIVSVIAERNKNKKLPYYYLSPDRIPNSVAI
Nature of the test: Cytosol 5-lipoxygenase of rat basophilic leukemia cells (RBL-2H3 preparation). Type of test: biochemical. Conditions: RBL-2H3 cytosol preparation, [14C]arachidonic acid. Here is the method: A wide variety of biological assays have also been used to evaluate the ability of a compound to inhibit the enzyme 5-lipoxygenase. For example, a cytosol 5-lipoxygenase of rat basophilic leukemia cells (RBL) has been widely utilized in studies on leukotriene biosynthesis. Compounds that inhibit 5-lipoxygenase decrease the levels of leukotrienes.
RBL-2H3 cells were grown to confluence in tissue culture flasks according to Carter et al. (J Pharm Exp Ther 256(3); 929-937, 1991). The cells were harvested and washed five times in calcium-and magnesium-free D-PBS. The cells were suspended at 2×10^7/M in 10 mM BES, 10 mM PIPES, pH 6.8, 1 mM EDTA and then sonicated. The sonicate was centrifuged at 20,000×g for 20 minutes at 4° C. The supernatant was then removed and stored in aliquots at −70° C.
The 5-LO activity in the RBL-2H3 preparation was determined as follows: 0.1 ml reactions consisting of 0.7 mM CaCl2, 100 mM NaCl, 1 mM EDTA, 10 mM BES, 10 MM PIPES, pH 7.4, varying concentrations of test compound dissolved in DMSO (7.5% DMSO final in assay), and an amount of the RBL-2H3 preparation that will convert 15% of the arachidonic acid substrate mixture to oxygenated products (determined experimentally for each RBL-2H3preparation), were incubated for 20 minutes at room temperature. The reaction was initiated by the addition of 5 μl of the arachidonic acid substrate mixture (0.944 nmol [^14C] arachidonic acid and 6.06 nmol arachidonic acid per assay in 0.028% NH4OH), and allowed to proceed for 5 minutes at 37° C. The reaction was terminated by the addition of 0.12 ml of a mixture of (i) 1.66 mg/ml triphenylphosphine in ethyl ether; (ii) methanol; and (iii) 0.2M citric acid (30:4:1); followed by centrifugation at 1000×g for 1 minute. […] The film was developed, scanned using a densitometer, and the peak areas of arachidonic acid and its product(s) are calculated. The percent inhibition was determined from the amount of [14C]-arachidonic acid converted into oxygenated products in samples containing test compound relative to that of control samples (no test compound).

Test [2] has as its system 5-Lipoxygenase (LTB4 in whole blood). Nature of the test: Ex-vivo mouse whole blood 5-lipoxygenase evaluation (LTB4). Format: in vivo. To be noted: 3 mg/k iv, 60 minutes. As for the experimental part: (§1) CD-1 female mice, weighing 18-25 grams, and CD female rats, weighing 150-230 grams, were obtained from Charles River Labs. Test compounds were dissolved in 0.5% DMSO in 0.9% NaCl, for administration in mice (0.5 mg/ml) and in an alcohol vehicle (2% benzyl alcohol, 1% ethanol, 40% PEG 300, 10% propylene glycol, 47% of 5% dextrose and 3.5% pluronic F-68 in DiH2O) for use in rats (5 mg/ml). […] Heparinized whole blood (0.3 ml) was added into 1.5 ml Eppendorf centrifuge tube containing […] of 2 mM calcium ionophore A23187 (the final concentration of A23187 was […]). The sample was incubated for 30 minutes in a water bath at 37° C., and then centrifuged for 2 minutes. The plasma was diluted (×120) and assayed for LTB4 using EIA.

In test [3] the test system is Leukotriene B4 production in ionophore-stimulated human whole blood. Nature of the test: Inhibition of leukotriene B4 production in ionophore-stimulated human whole blood. Format: cell-based. Conditions: A23187 stimulated, LTB4 by EIA, read-out: HWB IC50. As for the experimental part: Another biological assay used to evaluate the ability of a compound to inhibit the enzyme 5-lipoxygenase is based on the classic pharmacological model of inflammation induced by inhibition of LTB, from ionophore stimulated human whole blood.
Human blood was drawn into heparinized blood collection tubes, and aliquoted in 1 ml portions into 1.5 ml microfuge tubes. Test compound ([…]) of varying concentrations, dissolved in DMSO, was added to the blood sample and incubated for 15 minutes at 37° C. Calcium ionophore ([…], A23187) in DMSO was added to a final concentration of […], and the samples were incubated for 30 minutes at 37° C. Samples are then centrifuged at 1100×g (2500 rpm, H1000B rotor, in a Sorvall centrifuge) for 10 minutes at 4° C. Supernatant ([…]) was transferred into a 1.5 ml microfuge tube, […] of cold methanol added, and proteins precipitated on ice for 30 minutes. The samples were centrifuged at 110×g for 10 minutes at 4° C., and the supernatant assayed for LTB4 using a commercially available EIA kit (Cayman Chemical) according to manufacturer's specifications.

In test [4] the test system is 5-Lipoxygenase (LTB4 in whole blood). Nature of the test: Ex-vivo rat whole blood 5-lipoxygenase evaluation (LTB4). To be noted: 2 mg/k po. Type of test: in vivo. Here is the method: as §1
The target in the next test is PAF (Homo sapiens, UniProt P25105). To be noted: background statement; cited from earlier work.
Sequence of PAF (P25105 whole entry): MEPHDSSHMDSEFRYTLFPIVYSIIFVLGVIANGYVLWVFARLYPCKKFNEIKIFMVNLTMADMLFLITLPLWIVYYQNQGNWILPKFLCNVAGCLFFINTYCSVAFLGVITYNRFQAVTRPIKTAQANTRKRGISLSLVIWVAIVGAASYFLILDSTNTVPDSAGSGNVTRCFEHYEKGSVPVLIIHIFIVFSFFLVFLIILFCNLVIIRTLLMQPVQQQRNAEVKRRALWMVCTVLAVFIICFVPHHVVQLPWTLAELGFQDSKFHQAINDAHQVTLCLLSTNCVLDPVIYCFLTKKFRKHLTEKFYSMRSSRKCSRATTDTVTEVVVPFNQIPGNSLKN
In the next test the target is T2, 5-lipoxygenase (Homo sapiens, UniProt P09917).
T2 sequence (P09917 1-674): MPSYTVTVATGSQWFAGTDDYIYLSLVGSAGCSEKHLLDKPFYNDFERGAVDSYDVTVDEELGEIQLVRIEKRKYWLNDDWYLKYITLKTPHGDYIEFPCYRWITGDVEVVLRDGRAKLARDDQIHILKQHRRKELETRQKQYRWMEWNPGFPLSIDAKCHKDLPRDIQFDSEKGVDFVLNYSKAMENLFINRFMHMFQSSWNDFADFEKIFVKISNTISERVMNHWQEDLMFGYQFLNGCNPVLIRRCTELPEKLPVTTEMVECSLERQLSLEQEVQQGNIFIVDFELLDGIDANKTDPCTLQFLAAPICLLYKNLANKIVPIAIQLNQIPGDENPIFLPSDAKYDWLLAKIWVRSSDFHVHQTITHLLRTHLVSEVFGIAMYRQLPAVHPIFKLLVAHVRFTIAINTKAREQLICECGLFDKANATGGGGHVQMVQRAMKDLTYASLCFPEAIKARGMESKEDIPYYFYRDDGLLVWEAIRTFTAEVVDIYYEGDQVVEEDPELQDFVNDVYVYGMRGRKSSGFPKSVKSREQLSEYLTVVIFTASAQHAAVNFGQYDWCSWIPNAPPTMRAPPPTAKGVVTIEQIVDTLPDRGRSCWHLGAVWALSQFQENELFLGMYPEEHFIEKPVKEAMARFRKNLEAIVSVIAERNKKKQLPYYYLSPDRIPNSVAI
To be noted: background statement; cited from earlier work.

“And” between values parts separate entries of the source, which are not always exact repeats. Equal entries are not always repeated.

As to `NC(=O)N(O)CCCC[C@@H]1CC[C@@H](COc2ccc(F)cc2)O1`, the IC50 in test [1] is 1230 nM and 1400 nM.
With `NC(=O)N(O)CCC#C[C@@H]1CC[C@@H](COc2ccc(F)cc2)O1`, the half-maximal inhibitory concentration (IC50) in test [1] was 1380 nM and 1490 nM and 560 nM and 1600 nM and 720 nM. Further, the “ex vivo LTB4 % inh.” value in test [2] is given as 22%.
In the case of `NC(=O)N(O)CCC#C[C@H]1CC[C@@H](COc2ccc(F)cc2)O1`, the IC50 in test [3] is 430 nM. Moreover, the “ex vivo LTB4 % inh.” value in test [4] (60 minutes) is 86%; in test [4] (360 minutes) it was 63%.
For the molecule `NC(=O)N(O)CCC#C[C@H]1CC[C@H](COc2ccc(F)cc2)O1`, the IC50 in test [3] amounted to 150 nM.
For the molecule `COc1cc([C@H]2CC[C@H](c3cc(OC)c(OC)c(OC)c3)S2)cc(OC)c1OC` (relative stereo) [L-653,150, trans-2,5-bis-(3,4,5-trimethoxyphenyl)tetrahydrothiophene], at PAF, the PAF antagonist activity result is “potent PAF antagonist”. For the same molecule, the “inhibition of 5-lipoxygenase” value at 5-lipoxygenase is “moderate inhibitor of 5-lipoxygenase”.
As for `NC(=O)N(O)CCCC[C@@H]1CCC(COc2ccc(F)cc2)O1` (single isomer, unassigned), in test [1], the IC50 was determined as 950 nM.

By IC50 is commonly meant the concentration that inhibits the measured activity by half.

(Values after patent US6569895B1, “Compounds and methods for the treatment of cardiovascular, inflammatory and immune disorders” (Millennium Pharmaceuticals, Inc., priority 1995, dated 2003).)
